Data set [1] relates to MCAO mouse model of stroke. Briefly: medial cerebral artery occlusion (MCAO) mouse model of stroke. It counts as in vivo, mice. The settings on record: 30 mg/kg i.p. 3 hours prior to MCAO. How it is done:
(§1) For stroke experiments, mice were anesthetized and occlusion of the medial cerebral artery (MCAO) was performed for 30 min (assessment after 3 days) or for 1 h (assessment after 1day) by introduction of an intraluminal filament as reported (Ploen et al., 2014). […] After 1 h or after 30 min of MCAO, respectively, mice recovered and were perfused 24 hours (1 h MCAO) or 72 hours (30 min MCAO) later. Brains were extracted, snap frozen and cryosectioned using a cryotome. Mounted brain slices were Nissl-Stained which allowed to measure infarct area and to calculate total infarct volume per animal. All measurements were performed in a blinded fashion. Data was assessed for normality and statistical analysis was performed using an one-tailed t-test.

In data set [2] the test system is LPA species (LPA 16:0, 18:1, 18:2). The experiment in a line: LPA species in cerebrospinal fluid (LC-ESI-MS/MS). It counts as in vivo. The settings on record: PRG-1 Ko mice, intraperitoneal injection. On the procedure:
LPA analysis was performed with liquid chromatography-electrospray ionization-tandem mass spectrometry (LC-ESI-MS/MS). The LC-MS/MS system consisted in a hybrid triple quadrupole-ion trap QTrap 5500 mass spectrometer (AB Sciex, Germany) equipped with a Turbo-V-source operating in negative ESI mode, an Agilent 1200 binary HPLC pump, column oven (40° C.) and degasser and an HTC Pal autosampler.
Two cycles of […] extraction of LPAs were done with 1-buthanol after adding the internal standard LPA17:0 to the sample (50 μl sample, 20 μl internal standard in 500 μl 1-butanol). The combined organic phases were dried under a gentle stream of nitrogen at 45° C. and subsequently re-dissolved in 200 μl methanol.
For the chromatographic separation a C18 column (Mercury 20×2 mm, 3 μm, 100 Å) and precolumn were used (Phenomenex, Germany). A linear gradient was employed at 400 μl/min. Mobile phase A was water with ammonium formate 50 mM and formic acid (100:0.2, v/v) and mobile phase B acetonitrile/formic acid (100:0.1, v/v), total run time 7 min, injection volume 20 μl. The mass spectrometer operated in the negative ion mode with an electrospray voltage of −4500 V at 350° C. Multiple reaction monitoring (MRM) was used for quantification. […] Quantitation was performed with Analyst Software V1.5 (Applied Biosystems) using the internal standard method with 1/concentration^2 weighting. […]

The nature of data set [3]: PF8380 concentration in serum and cerebrospinal fluid by mass spectrometry. It counts as in vivo, mice. How it is done: Animals were treated using the in-vivo potent autotaxin inhibitor PF 8380 (Gierse et al., 2010). Animals received a single i.p. injection 3 hours prior to PPI.
Nanoscale UPLC separation was performed with a nanoAcquity UPLC system (Waters Corporation) equipped with a PepSwift Monolithic PS-DVB, 200 μm×5 cm analytical column (Thermo Scientific Dionex). For analysis, samples (300 nL) were directly injected onto the analytical column. Mobile phase A was water containing 0.1% v/v formic acid, while mobile phase B was ACN containing 0.1% v/v formic acid. Samples were separated at 55° C. with a gradient of 1-35% mobile phase B over 20 min at a flow rate of 800 nL/min. The column was rinsed for 7 min with 99% mobile phase B, followed by a re-equilibration step at initial conditions resulting in total analysis times of 40 min.
Mass spectrometric analysis of PF-8380 was performed in positive mode ESI using a Synapt G2-S HDMS mass spectrometer (Waters Corporation). Samples were analyzed using a targeted MS-method isolating the singly charged precursor of PF-8380. […] All samples and references were analyzed in three technical replicates.
Raw data were analyzed manually using MassLynx V4.1 Software (Waters Corporation). Extracted ion chromatograms of fragment ions at m/z 301 were used for quantitative analysis calculating the area under the curve. […]

For data set [4], the system named is mice. Briefly: food intake after overnight food deprivation. It counts as in vivo. The text has this: Metabolic alterations like overnight fasting induce changes in LPA subtype composition (Ino M et al. 2012). This correlates with the increased activity of ATX after overnight food deprivation, the availability of the ATX substrate LPC but also with the substrate preferences of ATX for unsaturated LPCs. In order to understand the cortical effects of altered LPA-composition upon fasting, the inventors analyzed food consumption after overnight food deprivation in control and PF8380-treated animals. […] However, overnight food deprivation was not related to hyperlocomotion since travelled distance in an open field setting was not different between control, overnight food deprived and PF-treated overnight food deprived animals (FIG. 19B).

The next data set has as its system wild type (WT) animals. The experiment in a line: mEPSC recordings with PF8380, wild type. The class given is cell-based, mice.
The next data set has as its system PRG-1 Ko mice. Briefly: mEPSC recordings with PF8380, PRG-1 Ko. The settings on record: 1 μM. The class given is cell-based.
The test system of data set [5] is mice. Briefly: open field locomotion of food deprived animals. The settings on record: OF 10 min; controls, food deprived controls and food deprived animals treated with PF8380. It counts as in vivo.
For a further data set, the system named is PRG-1+/− mice. Briefly: MCAO stroke model in PRG-1+/− mice. The class given is in vivo. How it is done: as §1
For a further data set, the system named is PRG-1−/− neurons. Briefly: spontaneous postsynaptic currents (sPSC) with PF8380. It counts as cell-based, mice. The following applies: 1 μm.
For the next data set, the system named is PRG1−/− mice. The experiment in a line: Morris water maze. The settings on record: untreated and PF8380-treated PRG1−/− mice, during training days. It counts as in vivo. How it is done: For MWM the escape latency, swim speed, path length, and trajectory of swimming were recorded for each mouse. First, mice were trained for 5 days in “visible platform” task, than for 6 days in “hidden platform” task (spatial training), followed by a “probe trial”, which was repeated for 4 times. Mice received daily 4 trials for a maximum of 90 s with an intertrial interval of 5 min. The swim velocity (mean and max) and the immobility time (time spend not searching) were measured.

Results on 1 molecule are retold here after patent US20180289702A1, “LPA LEVEL REDUCTION FOR TREATING CENTRAL NERVOUS SYSTEM DISORDERS” (priority 2015, published 2018).

The structures appear in SMILES notation.

For `O=C(CCN1CCN(C(=O)OCc2cc(Cl)cc(Cl)c2)CC1)c1ccc2[nH]c(=O)oc2c1` [PF8380, 4-[3-(2,3-Dihydro-2-oxo-6-benzoxazolyl)-3-oxopropyl]-1-piperazinecarboxylic acid (3,5-dichlorophenyl)methyl ester], in [1] (after 1 day (1 h MCAO)), the infarct size entry is “significantly reduced”. In addition, the infarct size result in data set [1] (after 3 days (30 min MCAO)) is listed as “significantly reduced”. Also, the “main LPA species (LPA 16:0, 18:1, 18:2) in CSF” value in [2] is recorded as “significant decrease”. Moreover, the “concentrations in the serum” value in [3] (in-vivo application 30 mg/KG/BW) was “robust concentrations”. This molecule displayed a concentration at 3 h in data set [3] (mouse, cerebrospinal fluid, ip, 30 mg/KG/BW, single i.p. injection, 3 hours after injection) of no more than 420 nM. The food intake result with mice [4] (control mice (not food deprived)) was “does not alter”. Further, the food intake entry in the data set on mice [4] (overnight food deprived animals, within 60 min) was “significantly decreased”. For the same molecule, in the data set on wild type (WT) animals, the mEPSC amplitudes entry was “did not affect” and the mEPSC frequency result was “did not affect”. In the data set with PRG-1 Ko mice, the mEPSC amplitude result is “not influencing” and the mEPSC frequency result is given as “significantly reduced”. The “locomotion in the open field, total distance” value with mice [5] is given as “did not display significant differences”. The infarct volume entry in the data set with PRG-1+/− mice (30 min MCAO measured 3 d after stroke) is “significantly decreased”. Besides, the “outcome in modified Neurologic Severity Score” value with PRG-1+/− mice (3 h, 24 h, 48 h and 72 h post MCAO) was “significantly improves”. In the data set with PRG-1+/− mice (24 h up to 72 h post MCAO), the “long-term sensorimotor dysfunction, corner test” value is reported as “significantly improved”. Further, in the data set with PRG-1−/− neurons, the sPSC amplitude result is “not affecting” and the “spontaneous postsynaptic currents (sPSC)” value is recorded as “significantly reduced”. For the same molecule, the “escape latency in the Morris-Water-Maze” value with PRG1−/− mice is “did not change”.
